Molecular target: T1, STAT5a (Homo sapiens, UniProt P42229)
T1 sequence (P42229 1-794): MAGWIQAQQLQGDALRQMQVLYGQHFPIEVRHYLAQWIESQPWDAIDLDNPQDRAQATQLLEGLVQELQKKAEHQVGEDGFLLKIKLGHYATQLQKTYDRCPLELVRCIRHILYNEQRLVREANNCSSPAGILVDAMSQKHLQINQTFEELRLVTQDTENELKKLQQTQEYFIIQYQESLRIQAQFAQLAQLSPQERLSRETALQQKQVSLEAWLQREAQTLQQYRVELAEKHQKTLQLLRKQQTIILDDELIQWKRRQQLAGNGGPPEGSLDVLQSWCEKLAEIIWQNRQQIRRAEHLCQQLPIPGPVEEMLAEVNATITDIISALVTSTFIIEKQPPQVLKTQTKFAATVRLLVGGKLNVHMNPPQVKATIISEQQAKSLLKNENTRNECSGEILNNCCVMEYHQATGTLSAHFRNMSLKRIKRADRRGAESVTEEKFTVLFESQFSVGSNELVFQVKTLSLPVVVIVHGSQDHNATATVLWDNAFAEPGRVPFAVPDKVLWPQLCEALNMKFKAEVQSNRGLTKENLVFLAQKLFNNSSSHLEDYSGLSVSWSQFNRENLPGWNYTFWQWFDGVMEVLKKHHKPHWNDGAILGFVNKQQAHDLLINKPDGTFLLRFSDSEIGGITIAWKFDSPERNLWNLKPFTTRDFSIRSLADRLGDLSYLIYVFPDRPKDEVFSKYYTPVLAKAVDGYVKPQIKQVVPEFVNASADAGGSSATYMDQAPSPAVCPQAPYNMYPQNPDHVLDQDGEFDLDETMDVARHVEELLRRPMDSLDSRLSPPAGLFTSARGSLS
Assay: Competitive fluorescence polarization (FP) assay, STAT5a
Assay type: binding
Conditions: no reducing agent, 1 h
Excerpt: Screening of chemical libraries
Screening of chemical libraries comprising approximately 5000 known bioactive compounds in fluorescence polarization-based assays against phosphorylation-dependent protein-protein interaction domains, including STAT proteins, has been described.[1] PPADS was purchased from Sigma-Aldrich, and iso-PPADS from Bio-Techne.
Fluorescence polarization assays
Competitive fluorescence polarization (FP) assays for STAT1,[2] STAT3,[3] STAT4,[4] STAT5a,[5] STAT5b[6] and STAT6[1] were performed as previously described. Briefly, peptide binding to proteins was analyzed using the following carboxyfluorescein (CF) -labelled pepti des at a concentration of 10 nM: STAT1: 5-CF-GpYDKPHVL-OH, STAT3: 5-CF-GpYLPQTV -NH2, STAT4: 5-CF-GpYLPQNID-OH, STAT5a and STAT5b: 5-CF-GpYLVLDKW-OH, STAT6: 5- […]
CFGp[…]-OH. […] FP was measured using an Infinite F500 plate reader (Tecan) and measurements were converted into percent inhibition according to the binding curve equation. Curves were plotted and best fits calculated using OriginPro […]
Homogenous time-resolved fluorescence (HTRF) assays for STAT3, STAT4, STAT5a and STAT5b were carried out using Cisbio Monoclonal Antibody Anti-6His-Tb Gold as the fluorescence donor (Perkin Elmer) and the corresponding CF-labelled binding peptide as the acceptor. […] The average reading from 3 wells was obtained. […]

| Structure (SMILES) | IC50 |
| --- | --- |
| Cc1nc(/N=N/c2ccc(S(=O)(=O)O)cc2S(=O)(=O)O)c(COP(=O)(O)O)c(C=O)c1O [PPADS, pyridoxalphosphate‐6‐azophenyl‐2',4'‐disulfonic acid] | 1.5 ± 0.2 µM |
| Cc1nc(/N=N/c2cc(S(=O)(=O)O)ccc2S(=O)(=O)O)c(COP(=O)(O)O)c(C=O)c1O [iso‐PPADS] | 4.8 ± 0.4 µM |

— article PMC12442245, “Activity Analysis of the P2X Receptor Antagonist PPADS against Signal Transducer and Activator of Transcription Proteins” (Chembiochem, 2025)
